≈ marks a conversion by molar mass, not a printed value.
How the values were obtained:
[1] = test system: dl-PGE1-induced contraction of gerbil colon; experiment: inhibition of dl-PGE1-induced contraction of gerbil colon; details: approximate; for ID50 vs. 20 ng. of PGE1 /ml.: sub-maximal challenge, 20 ng./ml. dl-PGE1, 50% inhibition of maximum response; for ID50 vs. 200 ng. of PGE1 ml.: maximal challenge, 200 ng./ml. dl-PGE1
diastolic blood pressure = experiment: hypotensive activity in anesthetized rats (minimal dose lowering diastolic blood pressure about 10 mm.); assay type: in vivo, Male Wistar strain rats; details: Rattus norvegicus; intravenous; dose producing a decrease of about 10 mm. in diastolic blood pressure
Protocol: This procedure is a modification of the technique described by Pike et al., Prostaglandins, Nobel Symposium 2, Stockholm, June, 1966; p. 165.
Male Wistar strain rats (Royal Hart Farms) averaging approximately 250 grams in weight were fastened to rat boards in a supine position by means of canvas vests and limb ties. The femoral area was infiltrated subcutaneously with lidocaine and the iliac artery and vein were exposed and cannulated. Arterial blood pressure (systolic/diastolic) was recorded using a Statham P23 Db pressure transducer-Offner dynograph system. To obtain a stable blood pressure, the animals were anesthetized before use with pentobarbital, 30 mg./kg. of body weight intravenously, and also were given hexamethonium bitartrate, 2 mg./kg., of body weight intravenously. The test compounds were prepared by ultrasonic dispersion in a saline-Tween 80 vehicle. A constant intravenous dose volume of 0.5 ml. was administered and test doses ranged from 0.1 to 10.0 mg./kg. of body weight. Increasing or decreasing doses were selected depending on the dose response obtained. In Table I below are set forth the minimal doses required to produce a decrease of about 10 mm. in diastolic blood pressure for typical compounds of the present invention.

[2] = test system: Microsporum canis ATCC 10214; experiment: agar-dilution streak-plate antifungal assay (1); assay type: cell-based; details: ATCC10214, read-out: Minimal inhibitory conc.
Protocol: (§1) The novel compounds of the present invention are also useful as antimicrobial agents. […] In this assay, the compounds to be tested are made up to contain 2.5 mg. of test compound per milliliter of solution. Observing sterile techniques, two-fold serial dilutions are made of each test solution. One milliliter of each of the original solutions and of each of the serial dilutions is then added to 9 ml. of warm sterile nutrient agar capable of supporting growth of the bacterial test cultures. A second set of agar dilutions is prepared identical to the first except that the nutrient agar is designed to support the growth of the fungal test cultures. […] The test bacteria and yeast-like fungi are prepared for use by growing in broth overnight. The spores of the filamentous fungi are harvested from mature agar slant cultures and are suspended in sterile physiological saline solution. A loopful of each of the resulting live suspensions is then, still employing sterile techniques, streaked upon the surfaces of each of the agar plates and the resulting streaked plates are then incubated. After an appropriate period of time, each of the streaks on each of the plates is inspected visually and the extent, if any, of bacterial or fungal growth is noted. The minimal inhibitory concentration (expressed in micrograms per milliliter) is defined as the concentration of test compound causing complete inhibition of growth of any particular organism. In a representative operation, and merely by way of illustration, the minimal inhibitory concentration of typical compounds of the present invention against a variety of test organisms as determined in the above-described assay are set forth in Tables II and III below: […]

[3] = test system: Microsporum gypseum ATCC 14683; experiment: agar-dilution streak-plate antifungal assay (2); assay type: cell-based; details: Nannizzia gypsea, ATCC14683, read-out: Minimal inhibitory conc.
Protocol: as §1

[4] = test system: Trichophyton tonsurans NIH 662; experiment: agar-dilution streak-plate antifungal assay (3); assay type: cell-based; details: NIH662, read-out: Minimal inhibitory conc.
Protocol: as §1

[5] = test system: Trichophyton mentagrophytes E 11?; experiment: agar-dilution streak-plate antifungal assay (4); assay type: cell-based; details: read-out: Minimal inhibitory conc.
Protocol: as §1

Trichophyton rubrum E 97 = experiment: agar-dilution streak-plate antifungal assay (5); assay type: cell-based; details: E97, read-out: Minimal inhibitory conc.
Protocol: as §1

[6] = test system: Mycobacterium smegmatis ATCC 606; experiment: agar-dilution streak-plate antibacterial assay (6); assay type: cell-based; details: Mycolicibacterium smegmatis, ATCC606, read-out: Minimal inhibitory conc.
Protocol: as §1

[7] = test system: Staphylococcus aureus Rose ATCC 14154; experiment: agar-dilution streak-plate antibacterial assay (7); assay type: cell-based; details: ATCC14154, read-out: Minimal inhibitory conc.
Protocol: as §1

[8] = test system: Streptococcus pyogenes C 203; experiment: agar-dilution streak-plate antibacterial assay (8); assay type: cell-based; details: C203, read-out: Minimal inhibitory conc.
Protocol: as §1

gastric acid secretion = experiment: inhibition of gastric acid secretion (pylorus-ligated rat, Shay rat); assay type: in vivo, rats (male, CFE strain); details: intraduodenal dose 100 mg./kg. body weight, 3 hours, 20% or more considered active
Protocol: The novel compounds of the present invention are also effective inhibitors of gastric acid secretion and of ulcer development in experimental animals, and thus are potentially valuable as agents for the control of gastric acid secretion and of gastric erosion and as anti-ulcer agents. Gastric acid secretion inhibitory action is usually measured by the "Shay rat" procedure ^(1,2) with some modifications as follows.
The rats (male, CFE strain) were starved for 48 hours (water was given ad libitum) to permit evacuation of stomach contents. On the morning of the experiment, under ether anesthesia, the abdominal region was shaved and a midline incision (1-11/2 inches) was made with a scalpel. With the help of a closed curved hemostat the duodenum was picked up. Upon getting the duodenum into view fingers were used to pull the stomach through the opening, the stomach was then gently manipulated with fingers to rid the stomach of air and residual matter which were pushed through the pylorus. Two 5-inch sutures were drawn under the pyloric-duodenal juncture. A ligature, at the juncture, was formed with one of the threads. The second ligature was also formed by not tightened.
The test compound or the vehicle, usually 1 ml./100 g. body weight, were injected into the duodenum as close as possible to the first ligature. After injection the second ligature was tightened below the injection site to minimize leakage. The stomach was placed back through the opening into the abdominal cavity, the area of incision was washed with saline and the incision was closed with autoclips. (Ocasionally, instead of an intraduodenal injection, animals were dosed by the oral or subcutaneous route. In the latter case, dosing was done thirty to sixty minutes before the operation).
The abdominal cavity was exposed by cutting with scissors and the esophagus close to the stomach was clamped off with a hemostat, the stomach was removed by cutting above the hemostat (the espohagus was cut) and between the two sutures. Extraneous tissue was removed, the stomach washed with saline and blotted on gauze. A slit was carefully made in the stomach which was held over a funnel and the contents were collected in a centrifuge tube. The stomach was further cut along the outside edge and turned inside out. Two ml. of water were used to wash the stomach contents into the respective centrifuge tube. The combined stomach contents and wash were then centrifuged out for 10 minutes in the International Size 2 Centrifuge (setting at 30). The supernatant was collected, volume measured and recorded, 2 drops of phenolphthalein indicator (1% in 95% ethanol) were added and the solution was titrated with 0.02N NaOH (or with 0.04N NaOH when large volumes of stomach contents were encountered) to pH 8.4 (because of usual coloring of the stomach contents, phenolphthalein was only used to permit visual indication that the end point was near) and the amount of acid present was calculated.
Compounds inducing inhibition of gastric acid secretion of 20% or more were considered active. In a representative operation, and merely by way of illustration, the results obtained with this assay with typical compounds of the present invention are given in Table IIIA.

Row | MIC [2] [µg/mL] | MIC [3] [µg/mL] | MIC [4] [µg/mL] | MIC [5] [µg/mL] | MIC (Trichophyton rubrum E 97) [µg/mL] | MIC [6] [µg/mL] | MIC [7] [µg/mL] | MIC [8] [µg/mL] | SMILES | ID50 vs. 20 ng. of PGE1 /ml. [1] [µg/mL] | minimal effective dose (diastolic blood pressure) [mg/kg] | Percent Inhibition of gastric acid secretion (gastric acid secretion) [%] | ID50 vs. 200 ng. of PGE1 ml. [1] [µg/mL]
1 |  |  |  |  |  |  |  |  | CCCCCC/C=C/[C@H]1CCC(=O)[C@@H]1CCCCCCC(=O)N1CC2CCC(CC2)C1 (relative stereo) | 4 |  |  | 
2 | 25 (≈ 61.8 µM) | 25 (≈ 61.8 µM) | 25 (≈ 61.8 µM) | 10 (≈ 24.7 µM) | 25 (≈ 61.8 µM) | 10 (≈ 24.7 µM) | 25 (≈ 61.8 µM) | 10 (≈ 24.7 µM) | CCCCCC/C=C/[C@H]1CCC(=O)[C@@H]1CCCCCCC(=O)N1CCN(C)CC1 (relative stereo) [listing 1 of 2 here] |  | 4 | 36 | 
3 |  |  |  |  |  |  |  |  | CCCCCC/C=C/[C@H]1CCC(=O)[C@@H]1CCCCCCC(=O)N1CCN(C)CC1 (relative stereo) [listing 2 of 2 here] | 0.5 |  |  | 3
4 |  |  |  |  |  |  |  |  | CCCCCC/C=C/[C@H]1CCC(=O)[C@@H]1CCCCCCC(=O)N1CCN(c2ccccc2)CC1 (relative stereo) |  | 8 |  | 
5 | 250 (≈ 741 µM) | 250 (≈ 741 µM) | 250 (≈ 741 µM) | 250 (≈ 741 µM) | 250 (≈ 741 µM) | 250 (≈ 741 µM) | 250 (≈ 741 µM) | 250 (≈ 741 µM) | CCCCCC/C=C/[C@H]1CCC(=O)[C@@H]1CCCCCCC(=O)NO (relative stereo) |  | 2 | 38 | 12
6 | 100 (≈ 246 µM) | 100 (≈ 246 µM) | 100 (≈ 246 µM) | 25 (≈ 61.5 µM) | 100 (≈ 246 µM) | 10 (≈ 24.6 µM) | 50 (≈ 123 µM) | 10 (≈ 24.6 µM) | CCCCCC/C=C/[C@H]1CCC(=O)[C@@H]1CCCCCCC(=O)NCCCN(C)C (relative stereo) | 0.5 | 0.4 | 76 | 
7 | 250 (≈ 638 µM) |  | 250 (≈ 638 µM) | 250 (≈ 638 µM) |  | 25 (≈ 63.8 µM) |  | 25 (≈ 63.8 µM) | CCCCCC/C=C/[C@H]1CCC(=O)[C@@H]1CCCCCCC(=O)N1CCOCC1 (relative stereo) |  | 1 |  | 
8 | 100 (≈ 266 µM) | 10 (≈ 26.6 µM) | 50 (≈ 133 µM) | 50 (≈ 133 µM) | 25 (≈ 66.6 µM) | 5 (≈ 13.3 µM) | 50 (≈ 133 µM) | 5 (≈ 13.3 µM) | CCCCCC/C=C/[C@H]1CCC(=O)[C@@H]1CCCCCCC(=O)N1CCCC1 (relative stereo) | 1 | 8 |  | 
9 | 50 (≈ 156 µM) | 50 (≈ 156 µM) | 50 (≈ 156 µM) | 25 (≈ 77.8 µM) | 50 (≈ 156 µM) | 25 (≈ 77.8 µM) | 50 (≈ 156 µM) | 10 (≈ 31.1 µM) | CCCCCC/C=C/[C@H]1CCC(=O)[C@@H]1CCCCCCC(N)=O (relative stereo) [9-oxo-13-trans-prostenamide] | 5 | 2 |  | 
10 | 25 (≈ 71.5 µM) | 25 (≈ 71.5 µM) | 25 (≈ 71.5 µM) | 25 (≈ 71.5 µM) | 25 (≈ 71.5 µM) | 10 (≈ 28.6 µM) | 25 (≈ 71.5 µM) | 10 (≈ 28.6 µM) | CCCCCC/C=C/[C@H]1CCC(=O)[C@@H]1CCCCCCC(=O)N(C)C (relative stereo) [N,N-dimethyl-9-oxo-13-trans-prostenamide] | 2 | 2 |  | 
11 | 25 (≈ 68.4 µM) | 25 (≈ 68.4 µM) | 25 (≈ 68.4 µM) | 10 (≈ 27.4 µM) | 25 (≈ 68.4 µM) | 25 (≈ 68.4 µM) | 25 (≈ 68.4 µM) | 10 (≈ 27.4 µM) | CCCCCC/C=C/[C@H]1CCC(=O)[C@@H]1CCCCCCC(=O)NCCO (relative stereo) [N-(2-hydroxyethyl)-9-oxo-13-trans-prostenamide] | 1 | 0.4 |  | 
12 |  |  |  |  |  |  |  |  | CCC/C=C/[C@H]1CCC(=O)[C@@H]1CCCCCCC(=O)NCCCN(C)C (relative stereo) [N-(3-dimethylaminopropyl) 9-oxo-18,19,20-trinor-13-trans-prostenamide] |  |  | 87 | 
13 | 25 (≈ 68.6 µM) | 25 (≈ 68.6 µM) | 25 (≈ 68.6 µM) | 25 (≈ 68.6 µM) | 25 (≈ 68.6 µM) | 10 (≈ 27.4 µM) | 25 (≈ 68.6 µM) | 10 (≈ 27.4 µM) | CCCCCC/C=C/[C@H]1CCC(=O)[C@@H]1CCCCCCC(=O)NN(C)C (relative stereo) [N-(dimethylamino)-9-oxo-13-trans-prostenamide] | 0.5 | 2 | 58 | 
14 | 100 (≈ 298 µM) | 50 (≈ 149 µM) | 25 (≈ 74.5 µM) | 25 (≈ 74.5 µM) | 100 (≈ 298 µM) |  | 5 (≈ 14.9 µM) |  | CCCCCC/C=C/[C@H]1CCC(=O)[C@@H]1CCCCCCC(=O)NC (relative stereo) [N-methyl-9-oxo-13-trans-prostenamide] |  | 4 to 8 |  | 
15 | 250 (≈ 612 µM) | 125 (≈ 306 µM) | 125 (≈ 306 µM) | 125 (≈ 306 µM) | 250 (≈ 612 µM) | 6 (≈ 14.7 µM) | 62 (≈ 152 µM) | 6 (≈ 14.7 µM) | CCCCCC/C=C/[C@H]1CCC(O)[C@@H]1CCCCCCC(=O)NCCCN(C)C (stereo partly drawn) [N-(3-dimethylaminopropyl)-9-(α- and β-)-hydroxy-13-trans-prostenamide] |  | 0.2 | 85 | 
